This note sets out measurements from ChEMBL document CHEMBL1201862, “PubChem BioAssay data set” (2004).

Among the test systems are SK-MEL-2; SR; UACC-62; A549; SF-268; ACHN; UO-31; RPMI-8226; OVCAR-4; HT-29; SN12C; SNB-75; CAKI-1; Hs-578T; OVCAR-3; EKVX; MOLT-4; CCRF-CEM; RXF 393; SK-OV-3.
Common to all, as to assay: growth of human tumour cells (NCI), 48 h

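All cell lines were grown in 96-well plates and treated with compound for 48 hours. The concentration for 50% growth inhibition is given as GI50.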 Calls of active or inactive are those of the source. No stated cut-off is given here; in the data, active = GI50 up to about 1.1 µM and inactive = higher.

`COc1cc(OC)cc(-n2c(N)c(C#N)c3ccc([N+](=O)[O-])cc3c2=O)c1`: the GI50 was 41.2 µM (inactive) in the experiment with SK-MEL-2; 14.2 µM (inactive) in the experiment with SR; 27.3 µM (inactive) in the experiment on UACC-62; 43.4 µM (inactive) with A549; 32.4 µM (inactive) in the experiment with SF-268; 28.3 µM (inactive) in the experiment with ACHN. The GI50 in the experiment with UO-31 was 19.5 µM (inactive); in the experiment with RPMI-8226, 85.7 µM (inactive); in the experiment with OVCAR-4, 16.6 µM (inactive); in the experiment with HT-29, > 100 µM (inactive); with SN12C, 20.4 µM (inactive); with SNB-75, 19.7 µM (inactive). The GI50 is 30.8 µM (inactive) with CAKI-1 and 24.2 µM (inactive) in the experiment on Hs-578T.

As to `O=C1OC(C(O)CO)C(O)=C1O` (centres undefined), the GI50 was > 100 µM (inactive) with SK-MEL-2; 55.3 µM (inactive) in the experiment on SR; > 100 µM (inactive) in the experiment with OVCAR-3; > 100 µM (inactive) in the experiment with A549; > 100 µM (inactive) with SF-268; > 100 µM (inactive) with ACHN. Besides, the GI50 in the experiment on UO-31 is > 100 µM (inactive); with EKVX, > 100 µM (inactive); with RPMI-8226 it was 49.2 µM (inactive); in the experiment on MOLT-4, > 100 µM (inactive); with OVCAR-4 it was > 100 µM (inactive); in the experiment with HT-29, > 100 µM (inactive). The GI50 in the experiment on SN12C was > 100 µM (inactive); with SNB-75, 99.8 µM (inactive); with CAKI-1, > 100 µM (inactive); in the experiment on Hs-578T, > 100 µM (inactive); in the experiment on CCRF-CEM, > 10 µM (inactive).

For the compound `CC(C)CCCC(C)[C@H]1CC[C@H]2[C@@H]3CC[C@H]4C[C@@H](CCC=C(c5cc(Cl)c(O)c(C(=O)OC(C)C)c5)c5cc(Cl)c(O)c(C(=O)OC(C)C)c5)CC[C@]4(C)[C@H]3CC[C@]12C` (some centres undefined), the GI50 in the experiment on SK-MEL-2, with OVCAR-3, in the experiment on UACC-62, with A549, with SF-268 and with EKVX was > 50 µM (inactive) each time. The GI50 with RPMI-8226, with RXF 393, with MOLT-4, with SK-OV-3, in the experiment on OVCAR-4 and in the experiment on HT-29 was > 50 µM (inactive) in each case. Moreover, the GI50 with SN12C, in the experiment on SNB-75, with CAKI-1, in the experiment on Hs-578T and in the experiment with CCRF-CEM was > 50 µM (inactive) throughout.

Regarding `SC1=NC2=C(CSC/C2=C\c2ccc(Cl)cc2)C(c2ccc(Cl)cc2)N1` (centres undefined), the GI50 in the experiment with SK-MEL-2 is 34.2 µM (inactive); in the experiment on SR it was 32.2 µM (inactive); in the experiment with OVCAR-3, 41.2 µM (inactive); in the experiment with UACC-62 it was 49 µM (inactive); in the experiment on A549, 34.4 µM (inactive); with SF-268, 75.7 µM (inactive). In addition, the GI50 with ACHN is 40 µM (inactive); with UO-31, 32.4 µM (inactive); in the experiment on EKVX it was 38 µM (inactive); in the experiment with RPMI-8226 it was 37 µM (inactive); in the experiment with MOLT-4 it was 31.1 µM (inactive); in the experiment with SK-OV-3, 55.8 µM (inactive). Further, the GI50 was 42.5 µM (inactive) in the experiment with OVCAR-4; 29.6 µM (inactive) with HT-29; 33.2 µM (inactive) with SN12C; 42.3 µM (inactive) with CAKI-1; 45.3 µM (inactive) in the experiment with Hs-578T; 24.7 µM (inactive) in the experiment on CCRF-CEM.

`CCOP(=O)(O)C(C)(C)NC`: the GI50 in the experiment on SK-MEL-2, in the experiment with OVCAR-3, in the experiment on UACC-62, in the experiment with A549, with SF-268 and in the experiment with ACHN was > 100 µM (inactive) each time. The GI50 in the experiment on UO-31, in the experiment on EKVX, in the experiment on RPMI-8226, with RXF 393, in the experiment on MOLT-4 and in the experiment with SK-OV-3 was > 100 µM (inactive) in each case. Further, the GI50 in the experiment on OVCAR-4 was > 100 µM (inactive); with HT-29, > 100 µM (inactive); in the experiment with SN12C it was > 100 µM (inactive); in the experiment with CAKI-1, > 10 µM (inactive); in the experiment on Hs-578T, > 100 µM (inactive); with CCRF-CEM it was > 100 µM (inactive).

`CC(Nc1cc(Cl)cc(Cl)c1)c1ccncc1` (centres undefined): the GI50 in the experiment with SK-MEL-2 is > 10 µM (inactive); in the experiment with OVCAR-3, 16.6 µM (inactive); in the experiment with A549 it was 27.8 µM (inactive); in the experiment on SF-268, 17.9 µM (inactive); in the experiment on ACHN, 22.4 µM (inactive); with UO-31 it was 13.3 µM (inactive). Besides, the GI50 in the experiment on EKVX is 22.4 µM (inactive); with RPMI-8226, 18.2 µM (inactive); in the experiment on RXF 393, 20.7 µM (inactive); in the experiment on MOLT-4, 13.9 µM (inactive); in the experiment on OVCAR-4, 38.9 µM (inactive); in the experiment on HT-29 it was 27.7 µM (inactive). Besides, the GI50 with SN12C is > 10 µM (inactive); with SNB-75 it was 23.3 µM (inactive); in the experiment on CAKI-1, 17.2 µM (inactive); in the experiment with Hs-578T it was 35.2 µM (inactive); in the experiment on CCRF-CEM, 15.3 µM (inactive).

Take `OCCOCCN1CCN(CCCN2c3ccccc3Sc3ccc(C(F)(F)F)cc32)CC1`: the GI50 is 19.4 µM (inactive) with SK-MEL-2; 17.7 µM (inactive) with OVCAR-3; 6.65 µM (inactive) in the experiment with UACC-62; 13.1 µM (inactive) with A549; 16.5 µM (inactive) in the experiment with SF-268; 17.7 µM (inactive) in the experiment with ACHN. For the same compound, the GI50 in the experiment on UO-31 was 5.74 µM (inactive); with EKVX, 14.8 µM (inactive); with RPMI-8226 it was 3.17 µM (inactive); in the experiment on RXF 393, 3.18 µM (inactive); in the experiment with MOLT-4, 13.1 µM (inactive); in the experiment on SK-OV-3, 19.5 µM (inactive). Further, the GI50 in the experiment with OVCAR-4 was 15.7 µM (inactive); in the experiment with HT-29 it was 2.33 µM (inactive); in the experiment with SN12C it was 13.6 µM (inactive); in the experiment with SNB-75 it was 2.39 µM (inactive); with CAKI-1 it was 15.3 µM (inactive); in the experiment with Hs-578T, 11.9 µM (inactive). Moreover, in the experiment on CCRF-CEM, the GI50 was 0.337 µM (active).

For `CCCCCCCCNC(=O)C1=C(C)NC(C)=C(C(=O)NCCCCCCCC)C1`, the GI50 is > 100 µM (inactive) in the experiment with SK-MEL-2; > 100 µM (inactive) in the experiment with OVCAR-3; > 100 µM (inactive) in the experiment on UACC-62; > 100 µM (inactive) in the experiment on A549; > 100 µM (inactive) in the experiment on SF-268; 92.7 µM (inactive) in the experiment on ACHN. Further, the GI50 with UO-31 is 77.6 µM (inactive); in the experiment on EKVX, > 100 µM (inactive); with RPMI-8226, 71 µM (inactive); in the experiment with RXF 393, > 100 µM (inactive); in the experiment on MOLT-4 it was > 100 µM (inactive); in the experiment with SK-OV-3, > 100 µM (inactive). Further, the GI50 is > 100 µM (inactive) in the experiment with OVCAR-4; 82.8 µM (inactive) in the experiment on HT-29; > 100 µM (inactive) in the experiment on SN12C; 23.2 µM (inactive) in the experiment on SNB-75; > 100 µM (inactive) in the experiment on CAKI-1; > 100 µM (inactive) in the experiment on Hs-578T. Also, in the experiment with CCRF-CEM, the GI50 is 39.6 µM (inactive).
